From patent publication US20060281110A1, “Methods to identify antimicrobial compounds that interrupt ribosome biogenesis” (MICHIGAN STATE UNIVERSITY, priority 2005, published 2006) come the findings set out here.

One test deals with 50S subunit. The conditions noted are these: incubated 10 minutes at 37° C.; 10-25% sucrose gradient; FIG. 16. How it is done: (§1) The data was collected from 12% SDS-PAGE electrophoresis and blotted to a nylon membrane using standard Western Blot analysis. Incubations using rabbit polyclonal YlqF antibody was followed by horseradish peroxidase-conjugated goat anti-rabbit antibody and Western Lightning® (PerkinElmer) chemiluminescent detection. Purified YlqF-His6 was added as a comparative marker.
(§2) A B. subtilis strain was constructed that expresses a YlqF-His6 fusion protein as the only functional YlqF copy in the cell. […] The YlqF-His6 fusion protein was purified and tested for association with purified 45S intermediates and mature 50S subunits. YlqF-His6 and either the 45S intermediate or 50S subunits were mixed and incubated for 10 minutes at 37° C. The mixtures were then fractionated on 10-25% sucrose gradients and individual fractions corresponding to the 45S and 50S peaks were collected. […] Although it is not necessary to understand the mechanism of an invention, it is believed that YlqF functions as a factor involved in the biogenesis of the 50S subunit.

A further test concerns 45S intermediate. The experiment in a line: In vitro association of YlqF-His6 with ribosomal particles (sucrose gradient, Western blot). The conditions noted are these: incubated 10 minutes at 37° C.; 10-25% sucrose gradient; FIG. 16. The test is classed as binding, B. subtilis. The method, then:
as §1, §2
In general terms: A western blot detects proteins with antibodies after separation by electrophoresis.

With “YlqF-His6: purified His6 fusion to the C-terminus of B. subtilis GTPase YlqF”, the “binding to mature 50S subunit” value in the test with 50S subunit was “not the 50S subunit”. Besides, the “binding to 45S intermediate” value with 45S intermediate is “able to bind the 45S intermediate”.
